Reference: patent US20040192765A1 (H. Lundbeck A/S, priority 2001, published 2004)

Assays:
Assay type in all cases: in vivo
[1] = test system: Chronic Mild Stress model; test: Chronic Mild Stress model; details: animal models, compared with citalopram-racemate
Excerpt: (§1) This has i.a. been found in the Chronic Mild Stress model (Wiliner P., Psychopharmachology 1997, 134, 319-329).

[2] = fixed dose studies (MADRS rating scale and Clinical Global Impression); details: escitalopram in a dose of 10 mg compared with citalopram 40 mg
[3] = test system: primary care patients with major depression disorder; test: 8-week, double-blind, randomised, placebo-controlled, flexible-dose clinical study
Excerpt: as §1
A total of 471 patients were randomised into the study. The all-patient-treated set comprised 469 patients and the full-analysis set comprised 468 patients.
There was an approximately 3 to 1 ratio of women to men in each treatment group, and almost all patients were Caucasian. The mean age was 43 years (SD 11). At baseline, the mean MADRS total score was approximately 29 for the treatment group, which signifies moderate to severely ill patients.

[4] = pharmacological and clinical studies / animal models (summary statements)
Excerpt: This may be shown in functional in-vivo pharmacological models and studies of 5-HT-reuptake effect and or in behavior models, for example depression models.

## CN(C)CCC[C@@]1(c2ccc(F)cc2)OCc2cc(C#N)ccc21 [escitalopram, (S)-1-[3-(dimethylamino)propyl]-1-(4-fluorophenyl)-1,3-dihydro-5-isobenzofurancarbonitrile]
[1]
  speed of response: faster response than citalopram-racemate
[2]
  effect as determined by MADRS rating scale and Clinical Global Impression (severity and improvement): at least same effect as citalopram in a dose of 40 mg
[3]; 10 mg escitalopram, 20 mg citalopram, versus placebo
  onset of effect: showed effects after one week
[3]; Week 1 (p=0.023) to Week 4 (p=0.002), observed cases
  adjusted mean change in MADRS total score versus placebo (significance): significantly superior therapeutic effect
[3]; Week 4, last observation carried forward
  CGI improvement and severity subscale versus placebo: statistically significantly superior to placebo
[3]; Week 4, last observation carried forward, 10 mg escitalopram, 20 mg citalopram, escitalopram p=0.002, citalopram statistically insignificant
  adjusted mean change in MADRS total score versus placebo: 2.7 points
[3]; from Week 1 onwards (p<0.05), observed cases, 4-week period
  CGI improvement and severity subscale versus placebo: significantly superior to placebo
[4]; animal models and clinical studies, compared with the racemate and other SSRIs
  onset of action: faster onset of action
[4]; pharmacological and clinical studies
  potency relative to the racemate: substantially more than two times as potent as the racemate
[4]; various animal models
  extent of response: more full response
